According to the kinase profiling compilation of Christmann-Franck et al. (2016):
Each block holds one compound with its values, some of them ahead of it.

Assays:
Test in all cases: KINOMEscan competition binding
Conditions in all cases: compound 10.0 µM
IKBKE (human) = IKBKE (human) (UniProt Q14164)
CAMK1D (human) = CAMK1D (human) (UniProt Q8IU85)
ACVR1B (human) = ACVR1B (human) (UniProt P36896)
CSK (human) = CSK (human) (UniProt P41240)
NEK6 (human) = NEK6 (human) (UniProt Q9HC98)
TLK2 (human) = TLK2 (human) (UniProt Q86UE8)
Sequence of TLK2 (human) (Q86UE8 whole entry, looked up): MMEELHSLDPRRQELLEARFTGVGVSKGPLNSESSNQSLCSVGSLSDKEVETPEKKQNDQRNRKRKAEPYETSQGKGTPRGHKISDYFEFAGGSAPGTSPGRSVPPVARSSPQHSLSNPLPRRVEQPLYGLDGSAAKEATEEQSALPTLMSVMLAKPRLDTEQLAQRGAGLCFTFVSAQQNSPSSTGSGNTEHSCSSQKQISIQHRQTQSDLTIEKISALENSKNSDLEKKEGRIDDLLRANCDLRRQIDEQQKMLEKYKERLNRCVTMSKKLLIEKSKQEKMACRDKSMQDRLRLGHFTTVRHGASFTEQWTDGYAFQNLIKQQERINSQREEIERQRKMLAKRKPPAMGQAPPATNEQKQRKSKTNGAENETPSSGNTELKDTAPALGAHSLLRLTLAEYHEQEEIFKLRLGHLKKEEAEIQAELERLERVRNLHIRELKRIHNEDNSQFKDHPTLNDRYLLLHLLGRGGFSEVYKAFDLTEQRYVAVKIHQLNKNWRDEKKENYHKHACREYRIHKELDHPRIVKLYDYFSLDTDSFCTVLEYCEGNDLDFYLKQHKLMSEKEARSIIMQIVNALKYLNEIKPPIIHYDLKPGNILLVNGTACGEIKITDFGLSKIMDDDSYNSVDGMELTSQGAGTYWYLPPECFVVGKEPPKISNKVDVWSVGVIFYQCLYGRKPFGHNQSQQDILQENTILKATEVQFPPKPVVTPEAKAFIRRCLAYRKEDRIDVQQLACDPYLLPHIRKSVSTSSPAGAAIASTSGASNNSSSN

MYO3B (human) = MYO3B (human) (UniProt Q8WXR4)
EPHA3 (human) = EPHA3 (human) (UniProt P29320)
Sequence of EPHA3 (human) (P29320 whole entry, looked up): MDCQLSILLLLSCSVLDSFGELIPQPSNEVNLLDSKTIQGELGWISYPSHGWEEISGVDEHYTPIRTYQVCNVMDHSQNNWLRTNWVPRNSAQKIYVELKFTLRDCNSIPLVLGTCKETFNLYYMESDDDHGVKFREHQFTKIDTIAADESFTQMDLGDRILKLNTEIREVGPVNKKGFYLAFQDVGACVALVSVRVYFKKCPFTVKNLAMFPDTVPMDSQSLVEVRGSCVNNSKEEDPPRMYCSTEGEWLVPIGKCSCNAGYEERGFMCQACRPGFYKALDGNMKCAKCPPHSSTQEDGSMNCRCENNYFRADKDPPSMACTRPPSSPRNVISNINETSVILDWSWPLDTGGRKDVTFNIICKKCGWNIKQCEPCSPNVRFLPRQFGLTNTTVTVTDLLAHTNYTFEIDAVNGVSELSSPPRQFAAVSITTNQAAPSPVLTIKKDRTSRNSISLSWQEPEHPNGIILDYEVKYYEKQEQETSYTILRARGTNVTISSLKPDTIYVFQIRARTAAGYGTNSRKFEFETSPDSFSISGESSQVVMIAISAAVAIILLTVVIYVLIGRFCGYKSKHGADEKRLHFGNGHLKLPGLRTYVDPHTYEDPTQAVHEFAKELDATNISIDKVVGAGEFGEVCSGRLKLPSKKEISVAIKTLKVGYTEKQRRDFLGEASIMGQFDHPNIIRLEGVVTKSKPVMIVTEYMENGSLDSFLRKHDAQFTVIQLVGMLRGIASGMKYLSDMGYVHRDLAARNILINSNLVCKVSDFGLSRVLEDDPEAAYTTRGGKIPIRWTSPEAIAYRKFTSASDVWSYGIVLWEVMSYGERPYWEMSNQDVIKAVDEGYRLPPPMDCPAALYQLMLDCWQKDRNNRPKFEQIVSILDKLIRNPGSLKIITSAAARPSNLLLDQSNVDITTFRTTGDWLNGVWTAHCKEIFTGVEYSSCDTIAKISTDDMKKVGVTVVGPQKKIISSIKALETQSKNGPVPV

RPS6KA2 KD1 (human) = RPS6KA2 KD1 (human) (UniProt Q15349)
Sequence of RPS6KA2 KD1 (human) (Q15349 whole entry, looked up): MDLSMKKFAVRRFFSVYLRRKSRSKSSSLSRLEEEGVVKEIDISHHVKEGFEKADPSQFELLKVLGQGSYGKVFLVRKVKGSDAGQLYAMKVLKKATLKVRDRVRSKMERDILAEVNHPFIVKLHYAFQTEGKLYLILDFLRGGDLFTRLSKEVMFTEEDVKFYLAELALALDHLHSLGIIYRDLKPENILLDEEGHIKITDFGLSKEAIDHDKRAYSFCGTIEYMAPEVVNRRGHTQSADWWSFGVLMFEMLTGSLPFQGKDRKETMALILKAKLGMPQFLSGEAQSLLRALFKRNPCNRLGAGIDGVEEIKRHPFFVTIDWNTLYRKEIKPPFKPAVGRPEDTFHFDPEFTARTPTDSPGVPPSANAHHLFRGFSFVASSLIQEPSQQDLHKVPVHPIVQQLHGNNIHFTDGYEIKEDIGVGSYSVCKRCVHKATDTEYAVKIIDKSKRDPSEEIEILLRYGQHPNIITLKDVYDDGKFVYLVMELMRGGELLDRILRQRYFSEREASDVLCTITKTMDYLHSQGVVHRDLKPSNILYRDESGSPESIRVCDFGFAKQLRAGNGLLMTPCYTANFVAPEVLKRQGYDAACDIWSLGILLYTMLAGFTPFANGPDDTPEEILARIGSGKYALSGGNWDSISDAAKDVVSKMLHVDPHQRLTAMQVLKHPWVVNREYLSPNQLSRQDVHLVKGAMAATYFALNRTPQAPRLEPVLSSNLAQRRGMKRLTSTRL

MAPKAPK5 (human) = MAPKAPK5 (human) (UniProt Q8IW41)
IKBKB (human) = IKBKB (human) (UniProt O14920)
TXK (human) = TXK (human) (UniProt P42681)
MAP3K9 (human) = MAP3K9 (human) (UniProt P80192)
Sequence of MAP3K9 (human) (P80192 whole entry, looked up): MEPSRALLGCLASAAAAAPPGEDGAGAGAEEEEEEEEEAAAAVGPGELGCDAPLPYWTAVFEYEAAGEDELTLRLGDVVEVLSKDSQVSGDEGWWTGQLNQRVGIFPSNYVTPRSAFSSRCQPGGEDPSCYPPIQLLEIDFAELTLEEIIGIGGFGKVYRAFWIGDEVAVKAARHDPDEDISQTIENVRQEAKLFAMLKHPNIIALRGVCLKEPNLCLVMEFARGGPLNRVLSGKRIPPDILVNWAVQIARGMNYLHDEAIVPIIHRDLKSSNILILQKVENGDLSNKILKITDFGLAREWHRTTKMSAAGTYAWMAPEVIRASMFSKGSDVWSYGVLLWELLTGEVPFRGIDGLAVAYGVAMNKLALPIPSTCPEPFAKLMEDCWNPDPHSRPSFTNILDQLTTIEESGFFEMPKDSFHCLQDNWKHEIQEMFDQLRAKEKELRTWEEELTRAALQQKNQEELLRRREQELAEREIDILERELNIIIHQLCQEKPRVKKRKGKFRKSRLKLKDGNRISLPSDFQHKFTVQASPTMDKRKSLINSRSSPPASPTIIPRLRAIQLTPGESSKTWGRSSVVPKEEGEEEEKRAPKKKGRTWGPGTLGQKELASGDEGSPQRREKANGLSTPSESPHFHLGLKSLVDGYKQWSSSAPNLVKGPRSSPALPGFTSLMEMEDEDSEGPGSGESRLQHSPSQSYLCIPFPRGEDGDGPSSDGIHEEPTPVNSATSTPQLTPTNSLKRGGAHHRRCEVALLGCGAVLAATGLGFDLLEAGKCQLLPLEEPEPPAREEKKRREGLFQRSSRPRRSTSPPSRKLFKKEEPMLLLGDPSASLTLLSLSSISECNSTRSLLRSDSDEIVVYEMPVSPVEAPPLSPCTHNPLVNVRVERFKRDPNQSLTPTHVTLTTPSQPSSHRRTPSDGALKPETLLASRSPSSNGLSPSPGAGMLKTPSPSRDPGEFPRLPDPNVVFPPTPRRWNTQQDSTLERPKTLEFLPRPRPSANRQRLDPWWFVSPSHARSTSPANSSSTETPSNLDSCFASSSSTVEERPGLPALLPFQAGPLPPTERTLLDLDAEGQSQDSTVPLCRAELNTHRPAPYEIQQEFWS

PLK3 (human) = PLK3 (human) (UniProt Q9H4B4)
Sequence of PLK3 (human) (Q9H4B4 whole entry, looked up): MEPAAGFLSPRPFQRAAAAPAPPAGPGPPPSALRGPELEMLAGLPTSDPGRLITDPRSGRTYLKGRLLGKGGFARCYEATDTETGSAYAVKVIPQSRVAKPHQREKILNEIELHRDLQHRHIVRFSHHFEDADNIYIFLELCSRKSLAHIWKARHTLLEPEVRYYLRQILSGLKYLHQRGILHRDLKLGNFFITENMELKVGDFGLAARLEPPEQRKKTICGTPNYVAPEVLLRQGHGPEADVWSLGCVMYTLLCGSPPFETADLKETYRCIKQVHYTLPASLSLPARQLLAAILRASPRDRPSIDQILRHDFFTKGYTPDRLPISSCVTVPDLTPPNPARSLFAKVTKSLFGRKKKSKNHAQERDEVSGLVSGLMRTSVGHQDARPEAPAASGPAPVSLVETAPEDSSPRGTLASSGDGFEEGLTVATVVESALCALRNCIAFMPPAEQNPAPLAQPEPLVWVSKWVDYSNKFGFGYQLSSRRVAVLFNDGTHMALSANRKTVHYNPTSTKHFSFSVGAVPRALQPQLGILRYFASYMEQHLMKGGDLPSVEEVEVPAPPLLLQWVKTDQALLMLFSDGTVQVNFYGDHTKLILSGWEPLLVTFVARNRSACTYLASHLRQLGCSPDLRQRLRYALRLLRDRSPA

AXL (human) = AXL (human) (UniProt P30530)
[1] = system: ABL1 (human), P00519 [F317L]
PDPK1 (human) = PDPK1 (human) (UniProt O15530)
EPHB1 (human) = EPHB1 (human) (UniProt P54762)
PIK3C2B (human) = PIK3C2B (human) (UniProt O00750)
EPHA1 (human) = EPHA1 (human) (UniProt P21709)
CAMK4 (human) = CAMK4 (human) (UniProt Q16566)
CSNK1A1L (human) = CSNK1A1L (human) (UniProt Q8N752)
DDR1 (human) = DDR1 (human) (UniProt Q08345)
MAP3K3 (human) = MAP3K3 (human) (UniProt Q99759)
CDK3 (human) = CDK3 (human) (UniProt Q00526)
MAP4K3 (human) = MAP4K3 (human) (UniProt Q8IVH8)
STK36 (human) = STK36 (human) (UniProt Q9NRP7)
PIK3CB (human) = PIK3CB (human) (UniProt P42338)
[2] = system: ABL1 (human), P00519 [E255K]
NTRK1 (human) = NTRK1 (human) (UniProt P04629)
FGFR1 (human) = FGFR1 (human) (UniProt P11362)
LCK (human) = LCK (human) (UniProt P06239)
MAPK11 (human) = MAPK11 (human) (UniProt Q15759)
PRKCD (human) = PRKCD (human) (UniProt Q05655)
ADCK3 (human) = ADCK3 (human) (UniProt Q8NI60)
CDK5 (human) = CDK5 (human) (UniProt Q00535)
FGFR3 (human) = FGFR3 (human) (UniProt P22607)
STK4 (human) = STK4 (human) (UniProt Q13043)
GSK3B (human) = GSK3B (human) (UniProt P49841)
EPHA8 (human) = EPHA8 (human) (UniProt P29322)
ABL1 (human) = ABL1 (human) (UniProt P00519)
WEE1 (human) = WEE1 (human) (UniProt P30291)

Sequence of NEK6 (human) (Q9HC98 whole entry, looked up): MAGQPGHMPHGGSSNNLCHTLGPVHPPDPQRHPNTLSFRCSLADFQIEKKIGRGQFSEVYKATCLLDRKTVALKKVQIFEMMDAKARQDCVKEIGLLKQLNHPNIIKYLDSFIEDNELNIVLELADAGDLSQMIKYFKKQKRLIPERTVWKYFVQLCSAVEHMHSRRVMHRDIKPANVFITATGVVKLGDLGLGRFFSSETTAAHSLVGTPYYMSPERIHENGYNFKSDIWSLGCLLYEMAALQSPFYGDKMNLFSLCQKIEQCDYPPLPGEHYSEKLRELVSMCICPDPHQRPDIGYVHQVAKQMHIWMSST
Sequence of CAMK1D (human) (Q8IU85 whole entry, looked up): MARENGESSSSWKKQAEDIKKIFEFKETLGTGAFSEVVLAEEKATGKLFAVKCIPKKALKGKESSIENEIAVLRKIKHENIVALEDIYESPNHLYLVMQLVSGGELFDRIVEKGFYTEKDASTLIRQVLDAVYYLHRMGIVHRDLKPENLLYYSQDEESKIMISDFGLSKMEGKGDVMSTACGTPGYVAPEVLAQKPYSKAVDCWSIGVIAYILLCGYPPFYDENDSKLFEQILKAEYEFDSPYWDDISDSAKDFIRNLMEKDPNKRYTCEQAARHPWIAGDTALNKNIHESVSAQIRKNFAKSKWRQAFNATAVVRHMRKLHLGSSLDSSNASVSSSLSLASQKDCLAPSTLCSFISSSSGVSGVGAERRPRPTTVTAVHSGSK

SMILES: CN1C(=O)[C@H]2CCC[C@H]2N(C2CCCC2)c2nc(Nc3ccc(C(N)=O)cc3)ncc21
kinase still bound, per cent of control (RPS6KA2 KD1 (human)): 24%
kinase still bound, per cent of control (AXL (human)): 13%
kinase still bound, per cent of control (PLK3 (human)): 4.7%

SMILES: CN1C(=O)c2ccccc2N(C)c2nc(Nc3ccc(N4CCC(O)CC4)cc3)ncc21
kinase still bound, per cent of control [1]: 20%
kinase still bound, per cent of control (IKBKE (human)): 87%
kinase still bound, per cent of control (RPS6KA2 KD1 (human)): 68%
kinase still bound, per cent of control (PDPK1 (human)): 97%
kinase still bound, per cent of control (EPHB1 (human)): 100%
kinase still bound, per cent of control (PIK3C2B (human)): 89%
kinase still bound, per cent of control (EPHA1 (human)): 100%
kinase still bound, per cent of control (CAMK4 (human)): 100%
kinase still bound, per cent of control (CSNK1A1L (human)): 98%
kinase still bound, per cent of control (DDR1 (human)): 68%
kinase still bound, per cent of control (MAP3K3 (human)): 0.35%
kinase still bound, per cent of control (CDK3 (human)): 100%
kinase still bound, per cent of control (MAPKAPK5 (human)): 92%
kinase still bound, per cent of control (IKBKB (human)): 86%
kinase still bound, per cent of control (MAP4K3 (human)): 45%
kinase still bound, per cent of control (CAMK1D (human)): 98%
kinase still bound, per cent of control (STK36 (human)): 100%
kinase still bound, per cent of control (PIK3CB (human)): 94%
kinase still bound, per cent of control (ACVR1B (human)): 91%
kinase still bound, per cent of control [2]: 0.6%
kinase still bound, per cent of control (NTRK1 (human)): 64%
kinase still bound, per cent of control (FGFR1 (human)): 61%
kinase still bound, per cent of control (LCK (human)): 50%
kinase still bound, per cent of control (MAPK11 (human)): 88%
kinase still bound, per cent of control (PRKCD (human)): 100%
kinase still bound, per cent of control (ADCK3 (human)): 100%
kinase still bound, per cent of control (CSK (human)): 91%
kinase still bound, per cent of control (NEK6 (human)): 96%
kinase still bound, per cent of control (CDK5 (human)): 100%
kinase still bound, per cent of control (TXK (human)): 85%
kinase still bound, per cent of control (FGFR3 (human)): 62%
kinase still bound, per cent of control (STK4 (human)): 80%
kinase still bound, per cent of control (GSK3B (human)): 88%
kinase still bound, per cent of control (TLK2 (human)): 100%
kinase still bound, per cent of control (EPHA8 (human)): 100%
kinase still bound, per cent of control (MAP3K9 (human)): 91%
kinase still bound, per cent of control (AXL (human)): 88%
kinase still bound, per cent of control (ABL1 (human)): 3.2%
kinase still bound, per cent of control (PLK3 (human)): 97%
kinase still bound, per cent of control (WEE1 (human)): 100%
kinase still bound, per cent of control (MYO3B (human)): 73%
kinase still bound, per cent of control (EPHA3 (human)): 83%

Results, then the compound that gave them:

kinase still bound, per cent of control (IKBKE (human)): 29%
SMILES: Nc1cccc(-c2cc(/C=C3\SC(=O)NC3=O)c[nH]c2=O)c1

kinase still bound, per cent of control (CAMK1D (human)): 28%
kinase still bound, per cent of control (ACVR1B (human)): 32%
kinase still bound, per cent of control (CSK (human)): 33%
kinase still bound, per cent of control (NEK6 (human)): 24%
kinase still bound, per cent of control (TLK2 (human)): 26%
kinase still bound, per cent of control (MYO3B (human)): 26%
kinase still bound, per cent of control (EPHA3 (human)): 17%
SMILES: O=C1NC(=S)S/C1=C\c1ccc(-c2cncc3ccccc23)o1

kinase still bound, per cent of control (RPS6KA2 KD1 (human)): 26%
kinase still bound, per cent of control (MAPKAPK5 (human)): 12%
kinase still bound, per cent of control (IKBKB (human)): 26%
kinase still bound, per cent of control (CAMK1D (human)): 9%
kinase still bound, per cent of control (CSK (human)): 12%
kinase still bound, per cent of control (NEK6 (human)): 31%
kinase still bound, per cent of control (TXK (human)): 13%
kinase still bound, per cent of control (TLK2 (human)): 23%
kinase still bound, per cent of control (MAP3K9 (human)): 28%
kinase still bound, per cent of control (PLK3 (human)): 16%
kinase still bound, per cent of control (EPHA3 (human)): 13%
SMILES: N=C1NC(=O)/C(=C/c2ccc(-c3cncc4ccccc34)o2)S1
